Numbered stars: 1 amine (or outer) side, 2 acyl side, 3 side chain; on linkers, the order of the positions; unused ones are H or OH. Bridge positions count the residues as written; N and C are the ends. Square brackets hold non-standard residues; d marks the D form. Peptide text beside a SMILES is read from it. Adda = CO[C@@H](Cc1ccccc1)[C@@H](C)/C=C(C)/C=C/[C@H](N[*:1])[C@H](C)C(=O)[*:2]; dAsp(3S-Me) = C[C@H](C(=O)[*:3])[C@@H](N[*:1])C(=O)[*:2]; d(γGlu) = O=C(O)[C@@H](CCC(=O)[*:2])N[*:1]; NMeDha = C=C(NC)C(=O)O

The data set relates to Hepatotoxicity. Kind of data set: Literature-mined public compounds from Greene et al multi-species hepatotoxicity modelling dataset.

Take `CC1(C)S[C@@H]2[C@H](NC(=O)[C@H](NC(=O)N3CCN(S(C)(=O)=O)C3=O)c3ccccc3)C(=O)N2[C@H]1C(=O)[O-].[Na+]` [MEZLOCILLIN SODIUM]: the Hepatotoxicity result is on record as “HH: Evidence of human hepatotoxicity”.

Regarding `CN1CCN2c3ccccc3Cc3ccccc3C2C1` (stereo not given) [MIANSERIN], the Hepatotoxicity entry is given as “HH: Evidence of human hepatotoxicity”.

As to `COCC(=O)O[C@]1(CCN(C)CCCc2nc3ccccc3[nH]2)CCc2cc(F)ccc2[C@@H]1C(C)C` [MIBEFRADIL], the Hepatotoxicity entry is “NE: No evidence of hepatotoxicity in any species”.

For the compound `Clc1ccc(COC(Cn2ccnc2)c2ccc(Cl)cc2Cl)c(Cl)c1` (stereo not given) [MICONAZOLE], the Hepatotoxicity entry is “NE: No evidence of hepatotoxicity in any species”.

As to `C=C1C(=O)N[C@H](C)C(=O)N[C@@H](CC(C)C)C(=O)N[C@@H](C(=O)O)[C@H](C)C(=O)N[C@@H](CCCNC(=N)N)C(=O)N[C@@H](/C=C/C(C)=C/[C@H](C)[C@H](Cc2ccccc2)OC)[C@H](C)C(=O)N[C@@H](C(=O)O)CCC(=O)N1C` [MICROCYSTIN-LR] (R[Adda][d(γGlu)][NMeDha][dA]L[dAsp(3S-Me)]-OH; lactam N-7), the Hepatotoxicity result was “AH: Evidence for animal hepatotoxicity but not tested in humans”.

As to `CN(C)c1ccc(O)c2c1C[C@H]1C[C@H]3[C@H](N(C)C)C(O)=C(C(N)=O)C(=O)[C@@]3(O)C(O)=C1C2=O.Cl` [MINOCYCLINE HYDROCHLORIDE], the Hepatotoxicity result is listed as “HH: Evidence of human hepatotoxicity”.

Take `Cl.Cl.O=C1c2c(O)ccc(O)c2C(=O)c2c(NCCNCCO)ccc(NCCNCCO)c21` [MITOXANTRONE HYDROCHLORIDE]: the Hepatotoxicity result is on record as “HH: Evidence of human hepatotoxicity”.

In the case of `CCc1c(C)[nH]c2c1C(=O)C(CN1CCOCC1)CC2.Cl` (stereo not given) [MOLINDONE HYDROCHLORIDE], the Hepatotoxicity result is “HH: Evidence of human hepatotoxicity”.

With `C[C@@H]1C[C@H]2[C@@H]3CCC4=CC(=O)C=C[C@]4(C)[C@@]3(Cl)[C@@H](O)C[C@]2(C)[C@@]1(OC(=O)c1ccco1)C(=O)CCl` [MOMETASONE FUROATE], the Hepatotoxicity entry is “NE: No evidence of hepatotoxicity in any species”.

Take `C[C@H]1C(=O)O[C@@H]2CCN3CC=C(COC(=O)[C@](C)(O)[C@]1(C)O)[C@H]23` [MONOCROTALINE]: the Hepatotoxicity result is “AH: Evidence for animal hepatotoxicity but not tested in humans”.

Take `CC(C)(O)c1ccccc1CC[C@@H](SCC1(CC(=O)O)CC1)c1cccc(/C=C/c2ccc3ccc(Cl)cc3n2)c1` [MONTELUKAST]: the Hepatotoxicity entry is on record as “WE: Weak evidence (<10 case reports) of human hepatotoxicity”.

Turning to `CCOC(=O)Nc1ccc2c(c1)N(C(=O)CCN1CCOCC1)c1ccccc1S2.Cl` [MORICIZINE HYDROCHLORIDE], the Hepatotoxicity entry is listed as “HH: Evidence of human hepatotoxicity”.

For `CO[C@@]1(NC(=O)C(C(=O)[O-])c2ccc(O)cc2)C(=O)N2C(C(=O)[O-])=C(CSc3nnnn3C)CO[C@@H]21.[Na+].[Na+]` (stereo not given in full) [MOXALACTAM DISODIUM], the Hepatotoxicity entry is reported as “NE: No evidence of hepatotoxicity in any species”.

Turning to `CN(C)N=O` [N-NITROSODIMETHYLAMINE], the Hepatotoxicity entry is “AH: Evidence for animal hepatotoxicity but not tested in humans”.

With `CC(C)(C)NCC(O)COc1cccc2c1CC(O)C(O)C2` (stereo not given) [NADOLOL], the Hepatotoxicity entry is reported as “NE: No evidence of hepatotoxicity in any species”.

With `CCOc1ccc2ccccc2c1C(=O)N[C@@H]1C(=O)N2[C@@H]1SC(C)(C)[C@@H]2C(=O)[O-].O.[Na+]` [NAFCILLIN SODIUM], the Hepatotoxicity entry is “WE: Weak evidence (<10 case reports) of human hepatotoxicity”.

With `CCn1cc(C(=O)O)c(=O)c2ccc(C)nc21` [NALIDIXIC ACID], the Hepatotoxicity entry was “HH: Evidence of human hepatotoxicity”.

In the case of `O=C1CC[C@@]2(O)[C@H]3Cc4ccc(O)c5c4[C@@]2(CCN3CC2CC2)[C@H]1O5` [NALTREXONE], the Hepatotoxicity result is “HH: Evidence of human hepatotoxicity”.

Turning to `COc1ccc2cc([C@H](C)C(=O)O)ccc2c1` [NAPROXEN], the Hepatotoxicity entry is given as “WE: Weak evidence (<10 case reports) of human hepatotoxicity”.

For `CCc1nn(CCCN2CCN(c3cccc(Cl)c3)CC2)c(=O)n1CCOc1ccccc1` [NEFAZODONE], the Hepatotoxicity result was “HH: Evidence of human hepatotoxicity”.

On to `COC(=O)C1=C(C)NC(C)=C(C(=O)OCCN(C)Cc2ccccc2)C1c1cccc([N+](=O)[O-])c1.Cl` (stereo not given) [NICARDIPINE HYDROCHLORIDE], for which the Hepatotoxicity result is listed as “HH: Evidence of human hepatotoxicity”.

`COC(=O)C1=C(C)NC(C)=C(C(=O)OC)C1c1ccccc1[N+](=O)[O-]` [NIFEDIPINE]: the Hepatotoxicity entry was “HH: Evidence of human hepatotoxicity”.

Turning to `COCCOC(=O)C1=C(C)NC(C)=C(C(=O)OC(C)C)C1c1cccc([N+](=O)[O-])c1` (stereo not given) [NIMODIPINE], the Hepatotoxicity entry is recorded as “HH: Evidence of human hepatotoxicity”.

`COC(=O)C1=C(C)NC(C)=C(C(=O)OCC(C)C)C1c1ccccc1[N+](=O)[O-]` (stereo not given) [NISOLDIPINE]: the Hepatotoxicity entry is “NE: No evidence of hepatotoxicity in any species”.

Take `O=C1CN(/N=C/c2ccc([N+](=O)[O-])o2)C(=O)N1` [NITROFURANTOIN]: the Hepatotoxicity entry was “HH: Evidence of human hepatotoxicity”.

Regarding `COC(=O)Nc1nc2ccc(C(=O)c3cccs3)cc2[nH]1` [NOCODAZOLE], the Hepatotoxicity result is “NE: No evidence of hepatotoxicity in any species”.

`CN1Cc2c(N)cccc2C(c2ccccc2)C1` (stereo not given) [NOMIFENSINE]: the Hepatotoxicity result was “HH: Evidence of human hepatotoxicity”.

For the compound `C#CC1(O)CC[C@H]2[C@@H]3CCC4=CC(=O)CC[C@@H]4[C@H]3CC[C@@]21CC` (stereo not given in full) [NORGESTREL], the Hepatotoxicity result was “HH: Evidence of human hepatotoxicity”.

For `CNCCC=C1c2ccccc2CCc2ccccc21.Cl` [NORTRIPTYLINE HYDROCHLORIDE], the Hepatotoxicity result is recorded as “HH: Evidence of human hepatotoxicity”.

As for `CO[C@@H]1[C@@H](OC(N)=O)[C@@H](O)[C@H](Oc2ccc3c(O)c(NC(=O)c4ccc(O)c(CC=C(C)C)c4)c(=O)oc3c2C)OC1(C)C` [NOVOBIOCIN], the Hepatotoxicity result was “HH: Evidence of human hepatotoxicity”.

`CCCCC(CC)COC(=O)C=Cc1ccc(OC)cc1` (stereo not given) [OCTINOXATE]: the Hepatotoxicity result is given as “HH: Evidence of human hepatotoxicity”.

Consider `Cc1ccccc1C(OCCN(C)C)c1ccccc1.O=C(O)CC(O)(CC(=O)O)C(=O)O` (stereo not given) [ORPHENADRINE CITRATE], for which the Hepatotoxicity result is “NE: No evidence of hepatotoxicity in any species”.

For the compound `O=C(O)CCc1nc(-c2ccccc2)c(-c2ccccc2)o1` [OXAPROZIN], the Hepatotoxicity entry is on record as “HH: Evidence of human hepatotoxicity”.

Take `CCCOc1ccc2nc(NC(=O)OC)[nH]c2c1` [OXIBENDAZOLE]: the Hepatotoxicity entry was “AH: Evidence for animal hepatotoxicity but not tested in humans”.

With `CC[N+](C)(CC)CCOC(=O)C(O)(c1ccccc1)C1CCCCC1` (stereo not given) [OXYPHENONIUM], the Hepatotoxicity entry is “NE: No evidence of hepatotoxicity in any species”.

Turning to `O=S(=O)(O)O.Oc1cccc2cccnc12.Oc1cccc2cccnc12` [OXYQUINOLINE SULFATE], the Hepatotoxicity result is listed as “HH: Evidence of human hepatotoxicity”.

For the compound `CC(=O)O[C@H]1C(=O)[C@@]2(C)[C@H]([C@H](OC(=O)c3ccccc3)[C@]3(O)C[C@H](OC(=O)[C@H](O)[C@@H](NC(=O)c4ccccc4)c4ccccc4)C(C)=C1C3(C)C)[C@]1(OC(C)=O)CO[C@@H]1C[C@@H]2O` [PACLITAXEL], the Hepatotoxicity entry was “HH: Evidence of human hepatotoxicity”.

Take `NCCC(O)(P(=O)(O)O)P(=O)(O)O` [PAMIDRONIC ACID]: the Hepatotoxicity entry was “NE: No evidence of hepatotoxicity in any species”.

Turning to `C#CCN(C)Cc1ccccc1` [PARGYLINE], the Hepatotoxicity entry is recorded as “NE: No evidence of hepatotoxicity in any species”.

On to `NC[C@@H]1O[C@H](O[C@H]2[C@@H](O)[C@H](O[C@@H]3[C@@H](O)[C@H](N)C[C@H](N)[C@H]3O[C@H]3O[C@H](CO)[C@@H](O)[C@H](O)[C@H]3N)O[C@@H]2CO)[C@H](N)[C@@H](O)[C@@H]1O.O=S(=O)(O)O` [PAROMOMYCIN SULFATE], for which the Hepatotoxicity result is recorded as “NE: No evidence of hepatotoxicity in any species”.

As for `Fc1ccc([C@@H]2CCNC[C@H]2COc2ccc3c(c2)OCO3)cc1` [PAROXETINE], the Hepatotoxicity result is reported as “WE: Weak evidence (<10 case reports) of human hepatotoxicity”.

For `NC1=NC(=O)C(c2ccccc2)O1` (stereo not given) [PEMOLINE], the Hepatotoxicity entry is given as “HH: Evidence of human hepatotoxicity”.

For `CC(C)(C)NC[C@H](O)COc1ccccc1C1CCCC1.CC(C)(C)NC[C@H](O)COc1ccccc1C1CCCC1.O=S(=O)(O)O` [PENBUTOLOL SULFATE], the Hepatotoxicity entry is recorded as “HH: Evidence of human hepatotoxicity”.

Consider `CC1(C)S[C@@H]2[C@H](NC(=O)Cc3ccccc3)C(=O)N2[C@H]1C(=O)[O-].[Na+]` [PENICILLIN G SODIUM], for which the Hepatotoxicity entry is given as “HH: Evidence of human hepatotoxicity”.

As to `C1CCC(C(CC2CCCCN2)C2CCCCC2)CC1` (stereo not given) [PERHEXILINE], the Hepatotoxicity result was “HH: Evidence of human hepatotoxicity”.

As for `CC1(C)C(C=C(Cl)Cl)C1C(=O)OCc1cccc(Oc2ccccc2)c1` (stereo not given) [PERMETHRIN], the Hepatotoxicity result is on record as “NE: No evidence of hepatotoxicity in any species”.

With `CCOc1ccc(NC(C)=O)cc1` [PHENACETIN], the Hepatotoxicity entry is “HH: Evidence of human hepatotoxicity”.

Regarding `Cl.Nc1ccc(/N=N/c2ccccc2)c(N)n1` [PHENAZOPYRIDINE HYDROCHLORIDE], the Hepatotoxicity entry is recorded as “HH: Evidence of human hepatotoxicity”.

On to `NNCCc1ccccc1` [PHENELZINE], for which the Hepatotoxicity result is given as “NE: No evidence of hepatotoxicity in any species”.

Consider `c1ccc2c(c1)Nc1ccccc1S2` [PHENOTHIAZINE], for which the Hepatotoxicity result is “HH: Evidence of human hepatotoxicity”.

Take `CC(COc1ccccc1)N(CCCl)Cc1ccccc1.Cl` (stereo not given) [PHENOXYBENZAMINE HYDROCHLORIDE]: the Hepatotoxicity result was “NE: No evidence of hepatotoxicity in any species”.

As to `CS(=O)(=O)O.Cc1ccc(N(CC2=NCCN2)c2cccc(O)c2)cc1` [PHENTOLAMINE MESYLATE], the Hepatotoxicity entry is listed as “HH: Evidence of human hepatotoxicity”.

Turning to `S=C=Nc1ccccc1` [PHENYLISOTHIOCYANATE], the Hepatotoxicity result is “AH: Evidence for animal hepatotoxicity but not tested in humans”.

For `CC(N)C(O)c1ccccc1.Cl` (stereo not given) [PHENYLPROPANOLAMINE HYDROCHLORIDE], the Hepatotoxicity entry is on record as “NE: No evidence of hepatotoxicity in any species”.

On to `O=C1NC(=O)C(c2ccccc2)(c2ccccc2)N1` [PHENYTOIN], for which the Hepatotoxicity result was “HH: Evidence of human hepatotoxicity”.

For the origin of these results see ChEMBL document CHEMBL1697692, “Developing structure-activity relationships for the prediction of hepatotoxicity” (Chem Res Toxicol, 2010).
